Consider ten molecules from ChEMBL document CHEMBL1126397, “Synthesis of acid stable 5-o-fluoromethyl phosphonates of nucleosides. Evaluation as inhibitors of reverse transcriptase” (Bioorg Med Chem Lett, 1992).

The assay has as its target T1, Avian myoblastosis virus polyprotein II (Avian myeloblastosis virus, UniProt Q86831).
T1 sequence (Q86831 whole entry): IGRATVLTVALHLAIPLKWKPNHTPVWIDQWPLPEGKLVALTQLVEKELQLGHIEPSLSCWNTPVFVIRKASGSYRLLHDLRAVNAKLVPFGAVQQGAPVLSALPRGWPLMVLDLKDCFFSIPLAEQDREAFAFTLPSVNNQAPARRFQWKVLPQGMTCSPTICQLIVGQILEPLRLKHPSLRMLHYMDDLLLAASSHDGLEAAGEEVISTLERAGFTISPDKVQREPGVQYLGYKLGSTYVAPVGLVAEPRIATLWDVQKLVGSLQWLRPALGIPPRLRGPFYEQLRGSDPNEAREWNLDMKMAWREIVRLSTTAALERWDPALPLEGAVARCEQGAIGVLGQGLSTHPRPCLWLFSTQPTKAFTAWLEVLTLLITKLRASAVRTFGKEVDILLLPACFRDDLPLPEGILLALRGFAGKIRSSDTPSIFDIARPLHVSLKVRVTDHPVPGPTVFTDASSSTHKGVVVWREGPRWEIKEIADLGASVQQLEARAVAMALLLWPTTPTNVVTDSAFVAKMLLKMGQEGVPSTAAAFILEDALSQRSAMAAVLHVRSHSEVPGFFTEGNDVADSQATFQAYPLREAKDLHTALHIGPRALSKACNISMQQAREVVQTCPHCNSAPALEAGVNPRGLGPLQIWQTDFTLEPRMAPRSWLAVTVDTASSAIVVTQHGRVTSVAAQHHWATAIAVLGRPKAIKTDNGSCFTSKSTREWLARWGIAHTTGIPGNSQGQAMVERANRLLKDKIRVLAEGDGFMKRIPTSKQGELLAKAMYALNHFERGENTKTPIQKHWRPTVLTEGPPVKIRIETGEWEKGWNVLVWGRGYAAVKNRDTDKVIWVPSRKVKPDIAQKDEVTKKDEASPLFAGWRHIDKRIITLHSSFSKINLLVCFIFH
Kind of assay: Inhibitor of avian myeloblastosis virus AMV reverse transcriptase.
One may read the IC50 as the concentration that gives 50% inhibition. The molecule `Nc1ccn(C2O[C@H](COP(=O)(O)C(F)F)[C@@H](O)[C@H]2O)c(=O)n1` (stereo not given in full) had an IC50 of 171 µM. Then `Cc1cn(C2C=CC(COP(=O)(O)CF)O2)c(=O)[nH]c1=O` (stereo not given), with 281 µM; and `Cc1cn(C2C=CC(COP(=O)(O)C(F)F)O2)c(=O)[nH]c1=O` (stereo not given), with 887 µM; and `Cc1cn(C2CC(N=[N+]=[N-])C(COP(=O)(O)C(F)(F)F)O2)c(=O)[nH]c1=O` (stereo not given), with 37.6 µM. For `Cc1cn(C2C=CC(COP(=O)(O)C(F)(F)F)O2)c(=O)[nH]c1=O` (stereo not given), the IC50 is 842 µM. `Nc1nc(O)c2ncn(C3O[C@H](COP(=O)(O)C(F)(F)F)[C@@H](O)[C@H]3O)c2n1` (stereo not given in full) gave an IC50 of 145 µM.

In the case of `O=c1[nH]c(=O)n([C@H]2C[C@H](O)[C@@H](COP(=O)(O)C(F)(F)F)O2)cc1F`, the IC50 is 82 µM.

Turning to `O=c1[nH]c(=O)n([C@H]2C[C@H](O)[C@@H](COP(=O)(O)C(F)F)O2)cc1F`, the IC50 was 375 µM. Then `Cc1cn(C2CC(N=[N+]=[N-])C(COP(=O)(O)CF)O2)c(=O)[nH]c1=O` (stereo not given), with 127 µM; and `Cc1cn(C2CC(N=[N+]=[N-])C(COP(=O)(O)C(F)F)O2)c(=O)[nH]c1=O` (stereo not given), with 118 µM.
